Measured values taken from patent publication US20150352108A1, “AMINO-PYRIMIDINE COMPOUNDS AS INHIBITORS OF TBK1 AND/OR IKK EPSILON” (Alzheimer's Institute of America, priority 2009, published 2015).
pIC50: −log10 of the molar value.

What was measured:
[1] = molecular target: T1, IKKε (Homo sapiens, UniProt Q14164); experiment: In-vitro IKKε kinase assay ([γ33]ATP filter-plate); assay type: biochemical; conditions: text bins; read-out: IC50 for inhibition of the kinase activity of IKKε
T1 construct: His-tag; made in house; host or cells: Sf9 insect cells
T1 sequence (Q14164 1-716): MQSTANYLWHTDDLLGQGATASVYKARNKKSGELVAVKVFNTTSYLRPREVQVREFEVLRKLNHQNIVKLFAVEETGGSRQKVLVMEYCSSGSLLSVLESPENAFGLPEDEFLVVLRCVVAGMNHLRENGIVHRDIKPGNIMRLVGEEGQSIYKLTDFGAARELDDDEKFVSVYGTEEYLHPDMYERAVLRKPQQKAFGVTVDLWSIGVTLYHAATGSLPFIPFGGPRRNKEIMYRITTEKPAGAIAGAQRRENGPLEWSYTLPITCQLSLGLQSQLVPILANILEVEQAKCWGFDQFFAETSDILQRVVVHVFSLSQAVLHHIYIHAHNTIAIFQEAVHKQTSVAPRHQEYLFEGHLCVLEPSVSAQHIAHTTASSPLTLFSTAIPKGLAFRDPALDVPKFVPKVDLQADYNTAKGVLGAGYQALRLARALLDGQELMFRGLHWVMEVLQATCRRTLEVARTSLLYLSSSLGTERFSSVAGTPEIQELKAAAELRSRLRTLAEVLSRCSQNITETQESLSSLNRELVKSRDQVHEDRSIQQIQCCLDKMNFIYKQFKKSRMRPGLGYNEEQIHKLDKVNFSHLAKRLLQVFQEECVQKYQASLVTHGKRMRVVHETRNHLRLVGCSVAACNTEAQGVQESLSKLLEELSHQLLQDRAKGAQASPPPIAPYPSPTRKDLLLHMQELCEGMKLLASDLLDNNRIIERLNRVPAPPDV
How it was run: (§1)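 Phosphorylation of casein or myelin basic protein was counted by P-81 filter capture after 30-45 min reactions stopped with phosphoric acid, with counts normalized to DMSO after background subtraction. ATP was twice Km: 60 μM for TBK1 and 32 μM for IKKε, plus [γ33]ATP. Sf9-expressed His-tag enzymes were used at normal/sensitized levels of 0.1/0.02 μg/ml (TBK1) and 0.1/0.015 μg/ml (IKKε).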

[2] = molecular target: T2, TBK1 (Homo sapiens, UniProt Q9UHD2); experiment: In-vitro TBK1 kinase assay ([γ33]ATP filter-plate); assay type: biochemical; conditions: text bins; read-out: IC50 for inhibition of the kinase activity of TBK1
T2 construct: His-tag; made in house; host or cells: Sf9 insect cells
T2 sequence (Q9UHD2 1-729): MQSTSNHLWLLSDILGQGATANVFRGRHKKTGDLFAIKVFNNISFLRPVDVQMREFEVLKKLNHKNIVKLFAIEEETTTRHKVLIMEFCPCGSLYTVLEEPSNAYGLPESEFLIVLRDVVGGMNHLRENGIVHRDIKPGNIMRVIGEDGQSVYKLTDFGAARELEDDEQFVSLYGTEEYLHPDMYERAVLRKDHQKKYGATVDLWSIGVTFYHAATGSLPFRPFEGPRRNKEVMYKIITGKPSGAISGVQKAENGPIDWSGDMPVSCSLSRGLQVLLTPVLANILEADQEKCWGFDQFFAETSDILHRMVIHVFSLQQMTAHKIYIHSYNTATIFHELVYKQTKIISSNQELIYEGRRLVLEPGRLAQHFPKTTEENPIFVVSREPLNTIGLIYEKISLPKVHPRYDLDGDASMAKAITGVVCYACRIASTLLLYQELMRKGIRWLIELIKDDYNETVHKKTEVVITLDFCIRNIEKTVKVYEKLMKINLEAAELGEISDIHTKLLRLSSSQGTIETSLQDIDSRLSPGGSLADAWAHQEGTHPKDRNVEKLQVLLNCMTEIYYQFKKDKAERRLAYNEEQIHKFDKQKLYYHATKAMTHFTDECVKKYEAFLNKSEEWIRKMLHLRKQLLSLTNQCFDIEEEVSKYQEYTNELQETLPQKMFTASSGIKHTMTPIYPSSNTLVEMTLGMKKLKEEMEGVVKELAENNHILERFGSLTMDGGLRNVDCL
How it was run: as §1

pIC50 [1]	pIC50 [2]	SMILES
> 8.30	> 8.00	CC(C)Oc1ccc(-c2ccnc(Nc3ccc(N4CCOCC4)cc3)n2)cc1C#N [Example 191, 5-(2-{[4-(Morpholin-4-yl)phenyl]amino}pyrimidin-4-yl)-2-(propan-2-yloxy)benzonitrile]
7.30 to 8.30	> 8.00	N#Cc1cc(-c2ccnc(Nc3ccc(N4CCOCC4)cc3)n2)ccc1OC1CCNCC1 [Example 194, 5-(2-{[4-(Morpholin-4-yl)phenyl]amino}pyrimidin-4-yl)-2-(piperidin-4-yloxy)benzonitrile]
7.30 to 8.30	7.00 to 8.00	N#Cc1cccc(-c2ccnc(Nc3cccc(NC(=O)NC4CCCC4)c3)n2)c1 [Example 201, 1-(3-{[4-(3-Cyanophenyl)pyrimidin-2-yl]amino}phenyl)-3-cyclopentylurea]
7.30 to 8.30	7.00 to 8.00	N#Cc1cc(-c2ccnc(Nc3ccc(N4CCOCC4)cc3)n2)ccc1OCC1CCCCO1 (stereo not shown) [Example 205, 5-(2-{[4-(Morpholin-4-yl)phenyl]amino}pyrimidin-4-yl)-2-(tetrahydro-2H-pyran-2-ylmethoxy) benzonitrile]
7.30 to 8.30	> 8.00	CN(C)C(=O)CCNc1ccc(Nc2nccc(-c3ccc(OC4CCOCC4)c(C#N)c3)n2)cc1 [Example 209, N~3~-[4-({4-[3-cyano-4-(tetrahydro-2H-pyran-4-yloxy)phenyl]pyrimidin-2-yl}amino)phenyl]-N,N-dimethyl-beta-alaninamide]
> 8.30	> 8.00	N#Cc1cc(-c2ccnc(Nc3ccc(N4CCOCC4)cc3)n2)ccc1OCCCO [Example 210, 2-(3-Hydroxypropoxy)-5-(2-{[4-(morpholin-4-yl)phenyl]amino}pyrimidin-4-yl)benzonitrile]
> 8.30	> 8.00	CC(C)Nc1ccc(-c2ccnc(Nc3ccc(N4CCOCC4)cc3)n2)cc1C#N [Example 211, 5-(2-{[4-(Morpholin-4-yl)phenyl]amino}pyrimidin-4-yl)-2-(propan-2-ylamino)benzonitrile]
7.30 to 8.30	7.00 to 8.00	COc1cc(C#N)cc(-c2ccnc(Nc3cccc(NC(C)=O)c3)n2)c1 [Example 214, N-(3-{[4-(3-Cyano-5-methoxyphenyl)pyrimidin-2-yl]amino}phenyl) acetamide]
7.30 to 8.30	> 8.00	N#Cc1cc(-c2ccnc(Nc3ccc(N4CCOCC4)cc3)n2)ccc1OC1CCN(C(=O)CCO)CC1 [Example 215, 2-{[1-(3-Hydroxypropanoyl)piperidin-4-yl]oxy}-5-(2-{[4-(morpholin-4-yl)phenyl]amino}pyrimidin-4-yl)benzonitrile]
> 8.30	> 8.00	N#Cc1cc(-c2ccnc(Nc3ccc(N4CCOCC4)cc3)n2)ccc1NC(=O)C1C[C@@H]1F (stereo partly drawn) [Example 216, (2S)-N-[2-cyano-4-(2-{[4-(morpholin-4-yl)phenyl]amino}pyrimidin-4-yl)phenyl]-2-fluorocyclopropane-carboxamide]
7.30 to 8.30	> 8.00	N#Cc1cc(-c2ccnc(Nc3ccc(N4CCOCC4)cc3)n2)ccc1N [Example 217, 2-Amino-5-(2-{[4-(morpholin-4-yl)phenyl]amino}pyrimidin-4-yl)benzonitrile]
7.30 to 8.30	> 8.00	CNc1ccc(-c2ccnc(Nc3ccc(N4CCOCC4)cc3)n2)cc1C#N [Example 218, 2-(Methylamino)-5-(2-{[4-(morpholin-4-yl)phenyl]amino}pyrimidin-4-yl)benzonitrile]
7.30 to 8.30	> 8.00	N#Cc1cc(-c2ccnc(Nc3ccc(N4CCOCC4)cc3)n2)ccc1OCCN [Example 220, 2-(2-aminoethoxy)-5-(2-{[4-(morpholin-4-yl)phenyl]amino}pyrimidin-4-yl)benzonitrile]
7.30 to 8.30	7.00 to 8.00	N#Cc1cc(-c2ccnc(Nc3ccc(N4CCOCC4)cc3)n2)ccc1NCc1ccccc1 [Example 224]
7.30 to 8.30	7.00 to 8.00	COc1ccc(-c2ccnc(Nc3cc(CN4CCOCC4)c(OC)c(OC)c3)n2)cc1C#N [Example 226, 5-(2-{[3,4-Dimethoxy-5-(morpholin-4-ylmethyl)phenyl]amino}pyrimidin-4-yl)-2-methoxybenzonitrile]
7.30 to 8.30	> 8.00	N#Cc1cc(-c2ccnc(Nc3ccc(N4CCOCC4)cc3)n2)ccc1OCCNC=O [Example 230, N-{2-[2-cyano-4-(2-{[4-(morpholin-4-yl)phenyl]amino}pyrimidin-4-yl)phenoxy]ethyl} formamide]
> 8.30	7.00 to 8.00	CC(C)(O)COc1ccc(-c2ccnc(Nc3ccc(N4CCOCC4)cc3)n2)cc1C#N [Example 231, 2-(2-Hydroxy-2-methylpropoxy)-5-(2-{[4-(morpholin-4-yl)phenyl]amino}pyrimidin-4-yl)benzonitrile]
7.30 to 8.30	> 8.00	N#Cc1cc(-c2ccnc(Nc3ccc(N4CCOCC4)cc3)n2)ccc1OCC1CCN(C(=O)CO)CC1 [Example 233, 2-{[1-(hydroxyacetyl)piperidin-4-yl]methoxy}-5-(2-{[4-(morpholin-4-yl)phenyl]amino}pyrimidin-4-yl)benzonitrile]
> 8.30	> 8.00	COC(=O)c1ccc(Nc2nccc(-c3ccc(OC4CCOCC4)c(C#N)c3)n2)cc1OC [Example 235, methyl 4-({4-[3-cyano-4-(tetrahydro-2H-pyran-4-yloxy)phenyl]pyrimidin-2-yl}amino)-2-methoxybenzoate]
> 8.30	> 8.00	COc1cc(Nc2nccc(-c3ccc(OC4CCOCC4)c(C#N)c3)n2)ccc1S(=O)(=O)NCCCN(C)C [Example 237, 4-({4-[3-cyano-4-(tetrahydro-2H-pyran-4-yloxy)phenyl]pyrimidin-2-yl}amino)-N-[3-(dimethylamino)propyl]-2-methoxybenzene-sulfonamide]
> 8.30	> 8.00	N#Cc1cc(-c2ccnc(Nc3ccc(N4CCOCC4)cc3)n2)ccc1OCCO [Example 239, 2-(2-Hydroxyethoxy)-5-(2-{[4-(morpholin-4-yl)phenyl]amino}pyrimidin-4-yl)benzonitrile]
7.30 to 8.30	7.00 to 8.00	COc1cc(C#N)cc(-c2ccnc(Nc3ccc(N4CCOCC4)cc3)n2)c1 [Example 241, 3-Methoxy-5-(2-{[4-(morpholin-4-yl)phenyl]amino}pyrimidin-4-yl)benzonitrile]
7.30 to 8.30	7.00 to 8.00	N#Cc1cc(-c2ccnc(Nc3ccc(N4CCOCC4)cc3)n2)ccc1NS(=O)(=O)CC(F)(F)F [Example 243, N-[2-cyano-4-(2-{[4-(morpholin-4-yl)phenyl]amino}pyrimidin-4-yl)phenyl]-2,2,2-trifluoroethane-sulfonamide]
> 8.30	> 8.00	CS(=O)(=O)N1CCC(Oc2ccc(-c3ccnc(Nc4ccc(N5CCOCC5)cc4)n3)cc2C#N)CC1 [Example 246, 2-{[1-(Methylsulfonyl)piperidin-4-yl]oxy}-5-(2-{[4-(morpholin-4-yl)phenyl]amino}pyrimidin-4-yl)benzonitrile]
7.30 to 8.30	7.00 to 8.00	COc1ccc(Nc2nccc(-c3cc(Cl)cc(C#N)c3)n2)cc1OC [Example 248, 3-Chloro-5-{2-[(3,4-dimethoxyphenyl)amino]pyrimidin-4-yl}benzonitrile]
7.30 to 8.30	7.00 to 8.00	COc1ccc(-c2ccnc(Nc3ccc(CN4CCOCC4)cc3)n2)cc1C#N [Example 251, 2-Methoxy-5-(2-{[4-(morpholin-4-ylmethyl)phenyl]amino}pyrimidin-4-yl)benzonitrile]
